Here are results for nine compounds from patent publication US6869950B1, “Benzimidazole derivatives” (Fujisawa Pharmaceutical Co., Ltd., priority 1998, dated 2005).

One data set deals with db/db mice. The experiment in a line: Activity of decreasing blood sugar using db/db mice. The class given is in vivo. The conditions noted are these: female db/db mice, 1 mg/kg, compound mixed with powdered chow, 14 days; difference between db/db and +/+ mouse defined as 100%. The text has this:
<Activity of Decreasing Blood Sugar Using db/db Mice>
• 1-(2-Chloro-4-(n-pentyloxy)benzyl)-2-methyl-6-((4-methylbenzene)sulfonylcarbamoyl)benzimidazole—Compound(15) • 6-((N-1-butylaminosulfonyl)carbamoyl)-1-(2-chloro-4-phenylbenzyl)-2-methylbenzimidazole—Compound(76) Animal Used
Five-week-old female mice [C57BL/KsJ-dbm db+/db+, C57BL/KsJ-dbm +m/+m (Jackson Laboratory)] were purchased, and were kept for 2 to 3 weeks. Then, these mice were used in the test.
A test compound was mixed with a powdered chow (CE-2, made by Nippon Clea) using a mortar. The mixing ratio was 0.01%. The mixed chow was changed twice a week for each group. The feed amount and the remaining amount were recorded, and the intake was calculated from the difference therebetween.
The female db/db mice were grouped according to the body weight, the plasma glucose, and the plasma triglyceride concentrations. Then, the mixture containing the test compound was administered to the mice for 14 days (from 8 to 10 weeks old). In the morning on day 7 and day 14, blood was collected from the orbital venous plexus using heparinized glass capillary tubes (Chase Heparinized Capillary Tubes), and a plasma fraction was obtained through centrifugal separation. Plasma glucose, triglyceride, and insulin concentrations were measured on day 0 and day 14. Plasma glucose and triglyceride concentrations were measured on day 7. The body weight was measured on day 0, day 7, and day 14. After the final collection of the blood, the mice were killed using CO2 gas.
The plasma glucose was measured by a glucose oxidase method (Glucose CII-Test Wako made by Wako Pure Chemical Industries, Ltd.) using from 10 to 15 μl of plasma. The plasma triglyceride concentration was measured by a GPO-p-chlorophenol method (Triglyceride G-Test Wako made by Wako Pure Chemical Industries, Ltd.) or a GPO-DAOS method (Triglyceride E-Test Wako) using from 10 to 15 μl of plasma. The above-mentioned measurements were conducted immediately after the blood collection. The plasma insulin concentration was measured by radioimmunoassay method (Phadesef Insulin RIA Kit made by Cabi Pharmacia) using 20 μl of plasma (which can be stored at −20° C.).
The difference in the plasma glucose and the plasma triglyceride concentrations between the db/db mouse and the +/+ mouse was defined as 100%, and the rate (%) of decrease in the plasma glucose and the plasma triglyceride concentrations of the group to which the test compound was administered was calculated. […]
For `CCCCCOc1ccc(Cn2c(C)nc3ccc(C(=O)NS(=O)(=O)c4ccc(C)cc4)cc32)c(Cl)c1` [Compound (15), 1-(2-chloro-4-(n-pentyloxy)benzyl)-2-methyl-6-((4-methylbenzene)sulfonylcarbamoyl)benzimidazole], the “rate of decrease in the plasma glucose” value is 79% and the “rate of decrease in the plasma triglyceride” value was 69%. As for `CCCCNS(=O)(=O)NC(=O)c1ccc2nc(C)n(Cc3ccc(-c4ccccc4)cc3Cl)c2c1` [Compound (76), 6-((N-1-butylaminosulfonyl)carbamoyl)-1-(2-chloro-4-phenylbenzyl)-2-methylbenzimidazole], the “rate of decrease in the plasma glucose” value was 71% and the “rate of decrease in the plasma triglyceride” value was 98%.

Test system in another data set: not given
Assay: not given
Settings: not given
Usually melting point stands for the temperature, or range, at which the solid turns liquid. On to `CCCCC#Cc1ccc(Cn2c(C)nc3ccc(C(=O)NS(=O)(=O)CCCCC)cc32)c(Cl)c1` [Compound (44), 1-(2-chloro-4-(1-hexyn-1-yl)benzyl)-2-methyl-6-(1-pentanesulfonylcarbamoyl)benzimidazole], for which the melting point was in the range of 190 to 191 °C. On to `CCCCCS(=O)(=O)NC(=O)c1ccc2nc(C)n(Cc3ccc(N4CCOCC4)cc3Cl)c2c1` [Compound (71), 1-(2-chloro-4-morpholinobenzyl)-2-methyl-6-(1-pentanesulfonylcarbamoyl)benzimidazole], for which the melting point lay within 205 to 207 °C. On the same count and under the same terms, for `CCCNS(=O)(=O)NC(=O)c1ccc2nc(C)n(Cc3ccc(C(F)(F)F)cc3Cl)c2c1` [Compound (74), 1-(2-chloro-4-(trifluoromethyl)benzyl)-2-methyl-6-((N-1-propylaminosulfonyl)carbamoyl)benzimidazole] the value was 202 to 203 °C; for `CCCNS(=O)(=O)NC(=O)c1ccc2nc(C)n(Cc3ccc(OCC)cc3Cl)c2c1` [Compound (86), 1-(2-chloro-4-(ethyloxy)benzyl)-2-methyl-6-((N-1-propylaminosulfonyl)carbamoyl)benzimidazole], 175.3 to 176.2 °C. Same read-out and setting: to `CCCCCOc1ccc(Cn2c(C)nc3ccc(C(=O)NS(=O)(=O)NCCC)cc32)c(Cl)c1` [Compound (89), 1-(2-chloro-4-(pentyloxy)benzyl)-2-methyl-6-((N-1-propylaminosulfonyl)carbamoyl)benzimidazole] belongs 176.4 to 179.1 °C; to `CCNS(=O)(=O)NC(=O)c1ccc2nc(C)n(Cc3ccc(-c4ccco4)cc3Cl)c2c1` [Compound (91), 1-(2-chloro-4-(2-furyl)benzyl)-6-((N-ethylaminosulfonyl)carbamoyl)-2-methylbenzimidazole], 190.5 to 192.2 °C; to `CCCNS(=O)(=O)NC(=O)c1ccc2nc(C)n(Cc3ccc(-c4ccco4)cc3Cl)c2c1` [Compound (92), 1-(2-chloro-4-(2-furyl)benzyl)-2-methyl-6-((N-1-propylaminosulfonyl)carbamoyl)benzimidazole], 177.8 to 180.2 °C.
